Data on 2 molecules can be found in PMC3795738 (PLoS ONE, 2013).

For experiment [1], the target named is T1, CapB2 and CapA1Ct (GST-CapA1Ct) (Staphylococcus aureus, UniProt A8YPQ5+A8YPQ6). The settings on record: 10 µM ATP, 5 mM MgCl2, pH 7.5, 37°C; labelled compound; GST-CapA1Ct(ΔN222) as activator.
Target sequence in this assay (A8YPQ5 entry or part of it, one chain of several): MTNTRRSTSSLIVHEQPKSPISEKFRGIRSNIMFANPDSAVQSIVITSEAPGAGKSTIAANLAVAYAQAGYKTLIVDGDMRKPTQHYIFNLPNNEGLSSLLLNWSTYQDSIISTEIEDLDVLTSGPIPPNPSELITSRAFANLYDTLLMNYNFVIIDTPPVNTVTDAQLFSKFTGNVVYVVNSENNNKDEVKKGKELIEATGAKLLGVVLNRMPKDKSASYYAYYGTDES
In experiment [2] the target is T1, CapB2 and CapA1Ct (GST-CapA1Ct). As to conditions: 10 µM ATP, 5 mM MgCl2, pH 7.5, 37°C; labelled compound; GST-CapA1Ct as activator.
Target sequence in this assay (A8YPQ5 entry or part of it, one chain of several): as above
Experiment [3] addresses T2, CapB1 (Met1 to Glu228), as it stands in the CapA1B1 chimera (Staphylococcus aureus, UniProt A8YPQ8 1-228).
T2 construct: also called Cap5B1; source: E. coli BL21(DE3), purified (IMAC, gel filtration) as part of the chimera CapA1B1
T2 sequence: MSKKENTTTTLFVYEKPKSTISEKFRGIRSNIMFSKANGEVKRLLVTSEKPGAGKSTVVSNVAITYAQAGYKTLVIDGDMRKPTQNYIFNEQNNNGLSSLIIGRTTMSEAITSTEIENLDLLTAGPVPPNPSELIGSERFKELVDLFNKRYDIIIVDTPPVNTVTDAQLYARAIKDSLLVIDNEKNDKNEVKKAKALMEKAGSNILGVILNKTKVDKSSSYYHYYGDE
As to the kind of experiment: crystal structure. The settings on record: both partners purified.

Where two headings read alike, the source gives them in different places.

For `Nc1ncnc2c1ncn2[C@@H]1O[C@H](COP(=O)(O)OP(=O)(O)OP(=O)(O)O)[C@@H](O)[C@H]1O` [ATP], the “autophosphorylation with [γ-32P]ATP, SDS-PAGE, autoradiography” value in experiment [1] is “the Asn222 deletion did not affect the CapA1 ability to trigger CapB2 autophosphorylation”; in experiment [2], “CapB2 was incubated in the presence of radioactive ATP and different (wild type or mutated)”.

B1: CapA1 C-terminal juxtamembrane fragment (Val194 to Asn222), as it stands in the CapA1B1 chimera (domain or fragment)
chain: VIFDKRIKDEEDVEKELGLPVLGSIQKFN
notes: also called Cap5A1; source: E. coli BL21(DE3), purified (IMAC, gel filtration) as part of the chimera CapA1B1
On to B1, for which the binding result in experiment [3] is listed as “binds”.
